Consider one compound from patent US8633232B2, “Compounds, compositions and methods of using same for modulating uric acid levels” (Ardea Biosciences, Inc., priority 2008, dated 2014).

The target in one series is T1, hURAT1 Transporter (Homo sapiens, UniProt Q96S37).
T1 construct: Full-length human URAT1 gene (SLC22A12) was subcloned from plasmid pCMV6-XL5
T1 sequence (Q96S37 1-553): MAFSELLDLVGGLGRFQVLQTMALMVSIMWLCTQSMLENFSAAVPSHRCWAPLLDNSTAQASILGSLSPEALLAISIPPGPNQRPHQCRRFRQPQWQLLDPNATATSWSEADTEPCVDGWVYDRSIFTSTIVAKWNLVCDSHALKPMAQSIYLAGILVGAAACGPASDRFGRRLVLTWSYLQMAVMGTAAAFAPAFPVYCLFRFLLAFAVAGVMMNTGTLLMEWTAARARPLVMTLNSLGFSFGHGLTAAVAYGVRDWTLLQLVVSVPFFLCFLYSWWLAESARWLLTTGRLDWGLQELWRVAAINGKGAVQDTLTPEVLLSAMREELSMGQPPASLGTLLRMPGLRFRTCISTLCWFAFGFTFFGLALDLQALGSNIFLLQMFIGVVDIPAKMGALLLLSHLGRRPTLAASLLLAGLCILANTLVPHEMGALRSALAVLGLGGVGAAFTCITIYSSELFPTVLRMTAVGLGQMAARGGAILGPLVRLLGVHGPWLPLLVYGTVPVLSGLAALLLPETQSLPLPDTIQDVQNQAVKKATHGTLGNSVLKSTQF
Kind of series: Uric Acid Uptake Assay. Conditions: HEK293/urat1 cells; C14 Uric Acid 40 μM; 10 minutes at room temperature. The class given is cell-based. From the text:
Creation of Stable Cell Lines Expressing hURAT1 Transporter: Full-length human URAT1 gene (SLC22A12) was subcloned from plasmid pCMV6-XL5 (Origene) into eukaryotic expression plasmid pCMV6/Neo (Origene) using Not I restriction sites. Gene sequencing confirmed the sequence of hURAT1 as outlined in Genbank (Accession #NM_144585.2). HEK293 human embryonic kidney cells (ATCC#CRL-1573) were propagated in EMEM tissue culture medium as described by ATCC in an atmosphere of 5% CO2 and 95% air. Transfections of HEK293 cells with the pCMV6/Neo/URAT1 construct were performed using L2000 transfection reagent (Invitrogen) as described by the manufacturer. After 24 h the transfected cells were split into 10 cm tissue culture plates and grown for 1 day after which the medium was replaced with fresh growth medium containing G418 (Gibco) at 0.5 mg/ml final concentration. Drug-resistant colonies were selected after approximately 8 days and then tested for ^14C-uric acid transport activity. The HEK293/urat1 cells are plated on Poly-D-Lysine Coated 96-well Plates at a density of 75,000 cells per well.
Cells were grown overnight (20-26 hours) at 37° C. in an incubator. Plates were allowed to come to room temperature and media was washed out with one wash of […] of Wash Buffer (125 mM Na Gluconate, 10 mM Hepes ph 7.3). Compound or vehicle is added in assay buffer with C14 Uric Acid for a final concentration of 40 μM Uric Acid with a specific activity of 54 mCi/mmol. Assay Buffer is 125 mM Sodium Gluconate, 4.8 mM Potassium Gluconate, 1.2 mM Potassium phosphate, monobasic, 1.2 mM magnesium sulfate, 1.3 mM Ca Gluconate, 5.6 mM Glucose, 25 mM HEPES, pH 7.3. Plates were incubated at room temperature for 10 minutes then washed 3 times with 50 μl Wash Buffer and 3 times with 250 μl Wash Buffer. Microscint 20 Scintillation Fluid was added and plates were incubated overnight at 45° C. to equilibrate. Plates are then read on the TopCount Plate Reader and an EC50 value generated. (See Enomoto et al, Nature, 2002, 417, 447-451 and Anzai et al, J. Biol. Chem., 2004, 279, 45942-45950.).
Compounds prepared as described herein, were examined according to the procedure described above and EC50 values generated. […] (N/A means data not available).

Series [1] can be described thus: In vitro metabolic stability in human liver microsomes. The class given is in vitro ADME. The conditions noted are these: 1 uM test compound, 1 mg/mL HLM, 1 mM NADPH, 30 minute incubation at 37° C. How it is done: (§1) In vitro metabolic stability was assessed in rat and human liver microsomes (RLM/HLM). The incubation mixer contained the following: 1 uM test compound, 1 mg/mL HLM/RLM, 100 mM potassium phosphate buffer at pH 7.4, 1 mM NADPH and 5 mM MgCl2. This mixture was preincubated for 3 min before the 30 minute incubation at 37° C. The reaction was initiated with the addition of NADPH and terminated by the addition of equal volume of acetonitrile with internal standard. Incubation samples without NADPH were used as control samples. After vortexing and centrifugation, the supernatant was injected onto LC-MS/MS for quantitation.

A short description of series [2]: In vitro metabolic stability in rat liver microsomes. Conditions: 1 uM test compound, 1 mg/mL RLM, 1 mM NADPH, 30 minute incubation at 37° C. Type of series: in vitro ADME. The method, then: as §1

With `CC(C)(Sc1nnc(Br)n1-c1ccc(C2CC2)c2ccccc12)C(=O)O` [Example 3, 2-(5-Bromo-4-(4-cyclopropylnaphthalen-1-yl)-4H-1,2,4-triazol-3-ylthio)-2-methylpropanoic acid], the EC50 at hURAT1 Transporter lay in the range of 1 to 1000 nM. In addition, the “Liver Microsome Stability % Remaining Human” value in series [1] is reported as 97 ± 2%. Also, the “Liver Microsome Stability % Remaining Rat” value in series [2] is reported as 98 ± 0.1%.
